# From patent US20250221957A1, “PS[…] AND THEIR USE FOR TREATING […] AND NE[…] DISORDERS” (Transcend Therapeutics, Inc., priority 2021, published 2025)
# Like-named read-outs stand apart in the source and are kept apart here.
# What was measured:
# mice [1] = experiment: Fear extinction paradigm, mouse model of PTSD; assay type: in vivo; conditions: MBDB 5 mg/kg IP, day 2
# Description: (FIG. 9A) Schematic of experimental design. A single CS-US (tone-shock) pairing on day 1 was followed by 6 CS presentations in a novel context (context B). […] On day 3, the time spent freezing to the CS was quantified. […] (FIG. 9C) No locomotor changes were observed on day 3 (t(26)=1.073, p>0.05). Data are mean +/− SEM.
# FIGS. 10A-10B: MBDB improves fear extinction in a mouse model of PTSD. A single CS-US (tone-shock) pairing on day 1 was followed by 6 conditioned stimulus (CS) presentations in a novel context (context B). MBDB or saline vehicle was injected 30 min prior to extinction training on day 2. The time spent freezing to the CS was quantified on […]. […] Data are mean +/− SEM. N=10 for MBDB group (5 mg/kg, IP) and N=16 for saline control group. **p<0.01 vs. vehicle control group.
# Effective PTSD treatments facilitate the disassociation between a traumatic memory and the patient's fear response, making cues for the traumatic memory evoke less of a fear response. This is modeled in the mouse fear extinction paradigm (see FIG. 9A) which takes place over 3 days. On day 1 (fear conditioning), mice are trained to acquire a “traumatic memory,” namely associating the conditioned stimulus (CS, tone) to the unconditioned stimulus (US, foot shock). On day 2 (extinction training), they are trained to forget the traumatic memory association by presenting the CS 6 times (with no US) in a novel environment. On day 3 (extinction recall), the mice are “asked” if that tone (CS) still elicits a fearful response, as measured by the time spent freezing when the tone is presented. Less time freezing means better extinction recall. Drugs that improve extinction recall reduce freezing time on day 3, and, therefore, show potential as a PTSD treatment.
# [2] = tested on: serotonergic terminals in the cortex and hippocampus; conditions: 25 mg/kg IP every 12 hours for 4 days; 2 weeks post-treatment; cited from earlier work
# Sprague Dawley rats [3] = experiment: Forced Swim Test (FST); assay type: in vivo, rat; conditions: for reduction in immobility (magnitude of the effect): single dose 30 min before testing
# Description: The Forced Swim Test (FST) is a classic, and the most used preclinical behavioral assay to screen compounds with antidepressant-like activity and has high predictive and face validity (Porsolt et al. (1977) Nature 266:730; Borsini and Meli (1988) Psychopharmacology 94:147). The premise of the FST is that when rats are placed into a cylinder filled with water, they will initially try to escape, but over time will become immobile. This increased immobility reflects behavioral despair, modeling a depressive-like state.
# Animals: Male Sprague Dawley rats (Charles River Laboratories) weighing 180-200 g on arrival, were used for this study which took place at Melior Discovery (Exton, PA). Rats acclimated to their home cages for at least one week before testing, were maintained in a controlled environment on a 12 h light/dark cycle, with no more than 2 rats per cage. Animals received ad libitum access to food and water and were assigned randomly to treatment groups. Animal use and procedures were in accordance with established protocols approved by the IACUC committee, Melior Standard Operation Procedures (SOP), and Transcend Therapeutics.
# Forced Swim Test (FST): In the FST trial, rats were be placed in a circular plexiglass container filled with water, with no means of escape. Water temperature was maintained at 22-25° C. and changed for every animal. After an acclimation period, rats were timed for inactivity (failure to struggle), activity, swim time and climbing time. Day 1 consisted of a 15 min acclimation trial, and Day 2 (24 h later) consisted of the 5 min test. A time sampling procedure was employed where animals were observed every 5 sec and scored for immobility, swimming, or climbing. Fluoxetine (10 mg/kg, IP, Sigma Aldrich) or 0.9% sterile saline vehicle (vehicle 3× group) were administered 23.5, 5, and 1 h before testing in the FST. […] The experimenter was blinded to treatment.
# Statistical Analysis: Data for each parameter of the test (immobility, swimming, or climbing) is expressed as the mean±SEM. Differences between groups were determined by one-way ANOVA and post-hoc Tukey's test with a p-value of less than 0.05 indicating statistically significant differences.
# Forced Swim Test: In the FST trial, rats were be placed in a circular plexiglass container filled with water, with no means of escape. Water temperature was maintained at 22-25° C. and changed for every animal. After an acclimation period, rats were timed for inactivity (failure to struggle), activity, swim time and climbing time. Day 1 consisted of a 15 min acclimation trial, and Day 2 (24 h later) consisted of the 5 min test. A time sampling procedure was employed where animals were observed every 5 sec and scored for immobility, swimming, or climbing. Fluoxetine (10 mg/kg, IP, Sigma Aldrich) or 0.9% sterile saline vehicle (vehicle 3× group) were administered 23.5, 5, and 1 h before testing in the FST. 2C-B (2.5, 10, or 20 mg/kg, IP, Cayman Chemical) or 0.9% saline vehicle (vehicle 1× group) were administered 30 min prior to FST testing. The experimenter was blinded to treatment.
# Drug Treatment: Fluoxetine (10 mg/kg, IP, Sigma Aldrich) or 0.9% sterile saline vehicle were administered 23.5, 5, and 1 h before testing in the FST. […] Control animals received fluoxetine alone, methylone alone, or saline vehicle.
# Forced Swim Test: In the FST trial, rats were be placed in a circular plexiglass container filled with water, with no means of escape. Water temperature was maintained at 22-25° C. and changed for every animal. After an acclimation period, rats were timed for inactivity (failure to struggle), activity, swim time and climbing time. The experimenter and scorer were blind to treatment group. Day 1 consisted of a 15 min acclimation trial, and Day 2 (24 h later) consisted of the 5 min test. A time sampling procedure was employed where animals were observed every 5 sec and scored for immobility, swimming, or climbing. […]
# drug users / humans = conditions: cited from earlier work
# Sprague Dawley rats [4] = conditions: cited from earlier work
# [5] = target: T1, Human serotonin 5HT2B receptor (Homo sapiens, UniProt P41595); experiment: Competitive radioligand binding to 5HT2B receptor membrane preparations; conditions: ratio of Ki values
# T1 construct: host or cells: 5HT2B receptor expressing membranes
# T1 sequence (P41595 whole entry): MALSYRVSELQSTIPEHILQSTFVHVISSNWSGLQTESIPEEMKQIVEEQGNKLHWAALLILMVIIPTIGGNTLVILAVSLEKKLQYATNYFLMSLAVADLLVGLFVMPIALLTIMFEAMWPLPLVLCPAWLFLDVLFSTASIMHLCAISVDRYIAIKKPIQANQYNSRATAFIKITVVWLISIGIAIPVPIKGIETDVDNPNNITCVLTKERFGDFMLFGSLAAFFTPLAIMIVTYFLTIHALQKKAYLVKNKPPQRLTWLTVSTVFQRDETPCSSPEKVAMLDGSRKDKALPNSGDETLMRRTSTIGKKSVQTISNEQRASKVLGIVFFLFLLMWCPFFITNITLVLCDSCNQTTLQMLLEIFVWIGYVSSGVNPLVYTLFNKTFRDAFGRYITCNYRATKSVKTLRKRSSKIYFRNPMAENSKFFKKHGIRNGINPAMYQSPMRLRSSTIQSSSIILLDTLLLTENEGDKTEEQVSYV
# Description: Human serotonin 5HT2B receptor membrane preparations were divided into aliquots. On the day of the assay, membranes were diluted at 1:200 in incubation buffer. […] To each well was added 150 μL membrane preparation, 50 μL test compound, non-specific compound, or buffer alone, as well as 50 μL radioligand. The plate was incubated at 35° C. for 90 minutes with gentle agitation. […] For each concentration of drug, non-specific binding was subtracted from total binding to give specific binding. […] Ki was subsequently calculated using the ChengPrusoff equation.
# [6] = target: T1, Human serotonin 5HT2B receptor; conditions: literature values; read-out: reported Ki; cited from earlier work
# [7] = depending on the animal model used and dosing conditions; cited from earlier work
# mice [8] = conditions: MDMA 7.5 mg/kg 30 minutes prior to extinction training (Young 2015); cited from earlier work
# [9] = 13 of 77 deaths, meta-analysis; cited from earlier work
smiles,measurement,setting,value
"CCC(Cc1ccc2c(c1)OCO2)NC (racemic) [MBDB, N-methyl-1-(1,3-benzodioxol-5-yl)-2-aminobutane]",extinction acquisition on the first trial of extinction training,mice [1],improved extinction acquisition
same,locomotor activity,mice [1],"small, but significant increase"
same,serotonergic terminals destroyed in the cortex and hippocampus,[2],55-60%
same,climbing,Sprague Dawley rats [3]; MBDB IP 30 min before testing,significantly reduced only at the highest dose
same,swimming,Sprague Dawley rats [3]; MBDB IP 30 min before testing,robustly increased at all doses tested
same,immobility,"Sprague Dawley rats [3]; MBDB IP 30 min before testing, all doses tested (15-30 mg/kg)",significantly reduced immobility
same,adverse effects,"drug users / humans; self-administered MBDB under supervision, 100 to 300 mg",no serious adverse effects
"COc1cc(CCN)c(OC)cc1Br [2C-B, 4-Bromo-2,5-dimethoxyphenethylamine]",climbing,"Sprague Dawley rats [3]; 2C-B 2.5, 10, 20 mg/kg IP",significantly decreased only in the high-dose group
same,reduction in immobility (magnitude of the effect),Sprague Dawley rats [3]; 2C-B high-dose (20 mg/kg IP),53%
same,reduction in immobility (magnitude of the effect),Sprague Dawley rats [3]; 2C-B mid-dose (10 mg/kg IP),50%
same,swimming,Sprague Dawley rats [3]; single dose of 2C-B 30 minutes before testing,significant increase in swimming
same,adverse effects,"drug users / humans; self-administered 2C-B, 10 to 20 mg, experienced drug users",no serious adverse effects
"CCN(CC)C(=O)[C@@H]1C=C2c3cccc4[nH]cc(c34)C[C@H]2N(C)C1 [LSD, lysergic acid-N,N-diethylamide]","reduction in immobility in the FST, previous reports",Sprague Dawley rats [4]; literature (Hibicke 2020; Yang 2013; Tizabi 2012),38%
CC(N)Cc1ccc2c(c1)OCO2 (centres unmarked) [MDA],greater affinity for the 5HT2B receptor compared with methylone,[5],37 times
same,Ki,[6],0.1 µM
"CNC(C)Cc1ccc2c(c1)OCO2 (centres unmarked) [MDMA, 3,4-Methylenedioxymethamphetamine]",half-life,[7],5 to 7 h
same,reduced freezing compared to saline injected controls (extinction recall),mice [8],35%
same,greater affinity for the 5HT2B receptor compared with methylone,[5],7.5 times
same,"reduction in immobility, reported","Sprague Dawley rats [4]; MDMA 5 mg/kg, Flinders Sensitive Line rats (Majumder 2011)",45%
same,"reduction in immobility, reported","Sprague Dawley rats [4]; MDMA 5 mg/kg, Sprague Dawley rats (Majumder 2011)",45%
same,"reduction in immobility, reported","Sprague Dawley rats [4]; MDMA 10 mg/kg, Flinders Sensitive Line rats (Majumder 2011)",93%
same,"reduction in immobility, reported","Sprague Dawley rats [4]; MDMA 10 mg/kg, Sprague Dawley rats (Majumder 2011)",78%
same,blood concentration in deaths attributable to MDMA alone,[9],478 to 53900 ng/mL
"CNCCC(Oc1ccc(C(F)(F)F)cc1)c1ccccc1 (centres unmarked) [fluoxetine, reference compound]",swimming behavior,Sprague Dawley rats [3]; Example 8,significantly increased swimming behavior
same,reduction in immobility,"Sprague Dawley rats [3]; fluoxetine 10 mg/kg IP at 23.5, 5 and 1 h before testing (Examples 6 and 7)",56%
same,reduced immobility compared to vehicle,"Sprague Dawley rats [3]; fluoxetine alone, 10 mg/kg IP x3 (Example 8)",60%
